# Measurements: ChEMBL document CHEMBL5465560, “Selectivity Literature for EUbOPEN Chemogenomic Library” (2024)
# How the values were obtained:
# [1] = biological target: Dual specificity protein kinase CLK2 (Homo sapiens, UniProt P49760); assay: Selectivity interaction (KinomeScan (DiscoverX)) EUB0000229b CLK2; conditions: at 10 µM
# Mu-type opioid receptor = Mu-type opioid receptor (Homo sapiens, UniProt P35372); assay: Selectivity interaction (Opioid Mu GTPgS agonist assay ) EUB0000877a OPRM1
# Sequence of Mu-type opioid receptor (P35372 whole entry): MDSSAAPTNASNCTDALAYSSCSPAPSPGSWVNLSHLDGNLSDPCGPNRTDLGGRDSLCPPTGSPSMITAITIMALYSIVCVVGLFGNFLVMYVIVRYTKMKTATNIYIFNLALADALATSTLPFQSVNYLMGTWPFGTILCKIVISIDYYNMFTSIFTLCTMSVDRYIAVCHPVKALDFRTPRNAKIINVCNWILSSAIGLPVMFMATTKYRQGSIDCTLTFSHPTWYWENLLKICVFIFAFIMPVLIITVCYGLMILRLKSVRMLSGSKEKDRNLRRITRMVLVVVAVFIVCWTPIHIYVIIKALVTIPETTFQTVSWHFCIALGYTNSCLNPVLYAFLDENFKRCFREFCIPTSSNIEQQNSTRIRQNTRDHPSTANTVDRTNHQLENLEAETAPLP
# [2] = biological target: Protein kinase C alpha type (Homo sapiens, UniProt P17252); assay: Selectivity interaction (Kinase screening (Upstate/Millipore)) EUB0000604a PRKCA
# [3] = biological target: T1, Mitogen-activated protein kinase kinase kinase 6 (Homo sapiens) (UniProt O95382); assay: Selectivity interaction (Ambit KINOMEscan and KiNATiv profiling in Jurkat cells) EUB0000090b MAP3K6; type: cell-based; conditions: at 1 µM
# T1 sequence (whole entry): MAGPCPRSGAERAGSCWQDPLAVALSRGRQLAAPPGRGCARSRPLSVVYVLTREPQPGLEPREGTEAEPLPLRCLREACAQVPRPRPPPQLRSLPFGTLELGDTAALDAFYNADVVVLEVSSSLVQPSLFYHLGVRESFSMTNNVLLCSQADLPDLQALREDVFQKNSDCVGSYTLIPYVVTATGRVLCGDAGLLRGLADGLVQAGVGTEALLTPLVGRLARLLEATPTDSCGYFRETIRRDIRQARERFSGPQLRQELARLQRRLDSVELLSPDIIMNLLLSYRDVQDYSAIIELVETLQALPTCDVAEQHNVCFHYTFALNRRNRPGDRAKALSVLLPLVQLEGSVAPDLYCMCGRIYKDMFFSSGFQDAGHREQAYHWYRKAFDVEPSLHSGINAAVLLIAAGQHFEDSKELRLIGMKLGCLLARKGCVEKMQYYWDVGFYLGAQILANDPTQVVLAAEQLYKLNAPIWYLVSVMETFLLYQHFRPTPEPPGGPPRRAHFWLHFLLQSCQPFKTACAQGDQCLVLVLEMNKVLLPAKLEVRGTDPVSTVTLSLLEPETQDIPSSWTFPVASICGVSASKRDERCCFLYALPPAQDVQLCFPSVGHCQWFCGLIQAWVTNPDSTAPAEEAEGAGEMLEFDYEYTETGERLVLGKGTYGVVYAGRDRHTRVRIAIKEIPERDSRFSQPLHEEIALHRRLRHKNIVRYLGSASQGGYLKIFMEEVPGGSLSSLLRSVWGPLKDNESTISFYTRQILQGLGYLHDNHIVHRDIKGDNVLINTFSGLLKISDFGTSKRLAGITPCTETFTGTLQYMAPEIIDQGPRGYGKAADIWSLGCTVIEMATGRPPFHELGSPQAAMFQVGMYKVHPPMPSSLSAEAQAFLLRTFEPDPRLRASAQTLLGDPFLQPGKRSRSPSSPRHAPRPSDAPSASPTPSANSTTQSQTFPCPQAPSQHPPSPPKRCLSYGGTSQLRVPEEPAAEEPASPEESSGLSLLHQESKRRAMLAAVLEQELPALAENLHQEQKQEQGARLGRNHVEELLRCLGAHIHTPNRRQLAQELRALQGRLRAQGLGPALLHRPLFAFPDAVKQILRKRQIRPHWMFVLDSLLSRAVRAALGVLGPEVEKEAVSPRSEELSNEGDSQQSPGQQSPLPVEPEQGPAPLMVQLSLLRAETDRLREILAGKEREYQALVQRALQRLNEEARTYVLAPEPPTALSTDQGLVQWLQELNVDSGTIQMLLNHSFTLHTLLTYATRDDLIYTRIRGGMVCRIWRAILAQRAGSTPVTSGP
# [4] = biological target: Calcium/calmodulin-dependent protein kinase type 1G (Homo sapiens) (UniProt Q96NX5); assay: Selectivity interaction (KinomeScan (DiscoverX)) EUB0000045b CAMK1G
# Sequence of Calcium/calmodulin-dependent protein kinase type 1G (Homo sapiens) (Q96NX5 whole entry): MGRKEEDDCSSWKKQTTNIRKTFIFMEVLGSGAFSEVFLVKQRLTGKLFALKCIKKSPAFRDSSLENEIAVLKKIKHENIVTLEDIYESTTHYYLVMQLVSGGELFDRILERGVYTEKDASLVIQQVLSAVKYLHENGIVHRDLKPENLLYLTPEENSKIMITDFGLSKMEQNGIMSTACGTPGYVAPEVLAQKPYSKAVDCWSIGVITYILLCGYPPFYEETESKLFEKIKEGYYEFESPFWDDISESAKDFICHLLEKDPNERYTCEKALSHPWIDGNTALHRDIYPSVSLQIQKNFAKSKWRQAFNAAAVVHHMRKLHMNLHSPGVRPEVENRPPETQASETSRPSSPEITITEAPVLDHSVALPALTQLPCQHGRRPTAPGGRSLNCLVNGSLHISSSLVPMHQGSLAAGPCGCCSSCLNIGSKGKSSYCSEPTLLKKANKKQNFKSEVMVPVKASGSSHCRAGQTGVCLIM
# [5] = biological target: Serine/threonine-protein kinase 32B (Homo sapiens) (UniProt Q9NY57); assay: Selectivity interaction (KinomeScan (DiscoverX)) EUB0000045b STK32B
# Sequence of Serine/threonine-protein kinase 32B (Homo sapiens) (Q9NY57 whole entry): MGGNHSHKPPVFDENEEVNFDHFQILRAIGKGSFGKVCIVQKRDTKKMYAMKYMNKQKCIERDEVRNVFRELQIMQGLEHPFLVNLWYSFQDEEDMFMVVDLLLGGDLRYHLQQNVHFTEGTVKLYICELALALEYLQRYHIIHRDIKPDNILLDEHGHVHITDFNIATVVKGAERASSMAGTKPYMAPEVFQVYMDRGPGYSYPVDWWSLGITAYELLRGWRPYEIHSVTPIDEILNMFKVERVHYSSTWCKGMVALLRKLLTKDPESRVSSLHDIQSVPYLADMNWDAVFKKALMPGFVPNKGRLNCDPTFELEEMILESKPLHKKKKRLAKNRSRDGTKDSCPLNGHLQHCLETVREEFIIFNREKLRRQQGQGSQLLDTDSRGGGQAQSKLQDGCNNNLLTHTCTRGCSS
# [6] = biological target: Ribosomal protein S6 kinase alpha-1 (Homo sapiens, UniProt Q15418); assay: Selectivity interaction (KinomeScan (DiscoverX)) EUB0000695a RPS6KA1; conditions: at 100 nM
# Sequence of Ribosomal protein S6 kinase alpha-1 (Q15418 whole entry): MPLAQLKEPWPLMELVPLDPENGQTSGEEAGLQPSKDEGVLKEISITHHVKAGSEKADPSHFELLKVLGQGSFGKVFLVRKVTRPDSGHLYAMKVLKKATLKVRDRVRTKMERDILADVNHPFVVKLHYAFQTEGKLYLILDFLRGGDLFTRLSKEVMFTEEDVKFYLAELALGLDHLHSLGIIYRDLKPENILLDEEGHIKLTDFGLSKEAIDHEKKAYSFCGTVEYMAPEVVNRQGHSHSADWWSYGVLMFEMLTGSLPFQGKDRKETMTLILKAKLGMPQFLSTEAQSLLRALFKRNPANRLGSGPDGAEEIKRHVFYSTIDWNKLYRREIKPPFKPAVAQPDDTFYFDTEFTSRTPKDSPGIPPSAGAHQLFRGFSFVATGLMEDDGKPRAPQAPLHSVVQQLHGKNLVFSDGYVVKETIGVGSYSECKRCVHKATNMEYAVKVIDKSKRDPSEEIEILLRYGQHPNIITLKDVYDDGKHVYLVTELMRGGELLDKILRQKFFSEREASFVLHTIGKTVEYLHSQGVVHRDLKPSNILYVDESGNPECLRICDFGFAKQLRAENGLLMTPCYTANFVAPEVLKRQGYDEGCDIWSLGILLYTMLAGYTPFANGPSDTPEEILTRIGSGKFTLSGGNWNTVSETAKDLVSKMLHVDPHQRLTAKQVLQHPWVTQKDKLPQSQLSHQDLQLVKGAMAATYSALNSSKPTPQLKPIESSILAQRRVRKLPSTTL
# [7] = biological target: T2, 3-phosphoinositide-dependent protein kinase 1 (Homo sapiens) (UniProt O15530); assay: Selectivity interaction (KinomeScan (DiscoverX)) EUB0000695a PDPK1; conditions: at 100 nM
# T2 sequence (whole entry): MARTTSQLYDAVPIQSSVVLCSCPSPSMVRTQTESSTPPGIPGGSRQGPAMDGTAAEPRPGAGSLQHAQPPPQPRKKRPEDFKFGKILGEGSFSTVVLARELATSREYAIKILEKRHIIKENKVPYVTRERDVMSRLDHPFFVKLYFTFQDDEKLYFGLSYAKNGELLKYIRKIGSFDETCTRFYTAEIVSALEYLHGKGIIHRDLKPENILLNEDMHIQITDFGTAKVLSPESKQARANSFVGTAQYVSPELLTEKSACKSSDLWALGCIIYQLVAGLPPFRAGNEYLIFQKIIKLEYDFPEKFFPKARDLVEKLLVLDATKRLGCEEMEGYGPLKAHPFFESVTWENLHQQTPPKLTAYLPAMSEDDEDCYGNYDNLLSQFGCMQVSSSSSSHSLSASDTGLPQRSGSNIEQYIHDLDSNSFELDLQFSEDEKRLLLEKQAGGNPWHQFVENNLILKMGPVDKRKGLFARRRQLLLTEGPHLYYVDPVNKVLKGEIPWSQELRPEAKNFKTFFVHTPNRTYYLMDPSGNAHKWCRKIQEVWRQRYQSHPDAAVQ
# [8] = biological target: Serine/threonine-protein kinase SBK1 (Homo sapiens) (UniProt Q52WX2); assay: Selectivity interaction (KinomeScan (DiscoverX)) EUB0000607a SBK1; conditions: at 10 µM
# Sequence of Serine/threonine-protein kinase SBK1 (Homo sapiens) (Q52WX2 whole entry): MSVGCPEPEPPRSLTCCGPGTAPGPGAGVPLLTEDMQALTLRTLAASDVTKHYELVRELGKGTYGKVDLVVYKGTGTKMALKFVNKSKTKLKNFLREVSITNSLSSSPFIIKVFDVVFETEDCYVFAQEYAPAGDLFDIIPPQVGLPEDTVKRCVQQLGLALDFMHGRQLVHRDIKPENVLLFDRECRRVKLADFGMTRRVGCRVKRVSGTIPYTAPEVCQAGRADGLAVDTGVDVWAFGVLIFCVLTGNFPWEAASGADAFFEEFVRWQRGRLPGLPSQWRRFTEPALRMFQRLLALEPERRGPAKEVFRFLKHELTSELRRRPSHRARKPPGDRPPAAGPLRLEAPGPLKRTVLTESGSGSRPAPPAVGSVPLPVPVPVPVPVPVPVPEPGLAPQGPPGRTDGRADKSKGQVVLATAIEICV
# Sequence of Dual specificity protein kinase CLK2 (P49760 whole entry, looked up): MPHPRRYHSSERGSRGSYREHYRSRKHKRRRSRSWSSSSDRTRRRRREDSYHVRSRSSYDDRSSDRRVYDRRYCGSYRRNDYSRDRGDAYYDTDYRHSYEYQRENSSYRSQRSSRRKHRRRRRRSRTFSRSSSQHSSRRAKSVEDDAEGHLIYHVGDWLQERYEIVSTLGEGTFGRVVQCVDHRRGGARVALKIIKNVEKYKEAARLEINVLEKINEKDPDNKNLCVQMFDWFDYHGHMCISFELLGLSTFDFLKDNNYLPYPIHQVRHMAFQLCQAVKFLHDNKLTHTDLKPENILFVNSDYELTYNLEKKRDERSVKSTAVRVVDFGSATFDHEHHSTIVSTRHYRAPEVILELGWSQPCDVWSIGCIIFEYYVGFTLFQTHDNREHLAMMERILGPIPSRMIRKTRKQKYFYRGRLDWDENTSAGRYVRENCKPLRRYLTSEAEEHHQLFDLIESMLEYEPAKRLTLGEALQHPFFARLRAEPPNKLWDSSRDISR
smiles,measurement,setting,value
COc1cc(N(C)c2ccnc3ccc(C(F)(F)F)cc23)cc(OC)c1OC,% binding,[1],85%
CCC(=O)N1CC[C@H](Nc2ncnc3c2CN(c2cnc(OC)c(C(F)(F)F)c2)CC3)C1 [LENIOLISIB],IC50,Mu-type opioid receptor,> 30 µM
Cc1cnc(Nc2ccc(F)cc2Cl)nc1-c1c[nH]c(C(=O)N[C@H](CO)c2cccc(Cl)c2)c1,% of inhibition,[2],12%
CN(C)C/C=C/C(=O)Nc1ccc(C(=O)N2CCCC(Nc3ncc(Cl)c(-c4c[nH]c5ccccc45)n3)C2)cc1 (stereo unspecified),% of control,[3],100%
C=CC(=O)Nc1cc(-n2c(=O)ccc3cnc4ccc(-c5ccc(NS(C)(=O)=O)cc5)cc4c32)ccc1C,% of control,[4]; at 1 µM,100%
same,% of control,[4]; at 10 µM,68%
same,% of control,[5]; at 1 µM,100%
same,% of control,[5]; at 10 µM,100%
Cc1cc(F)c(C(=O)Nc2cccc(-c3nncn3C(C)C)n2)cc1-n1cnc(C2CC2)c1,% of control,[6],100%
same,% of control,[7],82%
CNC(=O)Nc1ccc(-c2nc(N3CC4CCC(C3)O4)c3cnn(C4CCC5(CC4)OCCO5)c3n2)cc1,% of control,[8],100%
